Measurements: patent EP0007672A1, “Isocyanoalkenes, process and useful intermediates for their preparation, pharmaceutical and fungicidal preparations containing those isocyanoalkenes and the use of the fungicidal preparations in agriculture” (GIST-BROCADES N.V., priority 1978, dated 1980)
Values after ≈ are worked out from the molar mass of the structure shown. Like-named read-outs stand apart in the source and are kept apart here.

Experiments:
Experiment in all cases: MIC (Minimum Inhibitory Concentration)
Assay type in all cases: cell-based
Candida albicans = tested on: Candida albicans
Pasteurella multocida = Pasteurella multocida A 723; read-out: MIC values
[1] = tested on: Streptococcus haemolyticus; conditions: Streptococcus haemolyticus A 1088; read-out: MIC values
Trichophyton equinum = tested on: Trichophyton equinum
[2] = tested on: Trichophyton mentagrophytus
Trichophyton quickeaneum = Trichophyton quickeaneum A 2040; read-out: MIC values
Trichophyton rubrum = tested on: Trichophyton rubrum
[3] = tested on: Trichophyton schoenleinii; conditions: Trichophyton schoenleinii 435-63; read-out: MIC values
[4] = tested on: Trichophyton soudanese joyeux; conditions: Trichophyton soudanese joyeux 440-63; read-out: MIC values
Trichophyton tonsurans = Trichophyton tonsurans 561-50; read-out: MIC values
Trichophyton verrucosum = tested on: Trichophyton verrucosum
Trichophyton violoceum = Trichophyton violoceum 442-62; read-out: MIC values
[5] = Candida albicans A 7, read-out: MIC values
[6] = Candida albicans A 3140, read-out: MIC values
[7] = Candida albicans A 3141, read-out: MIC values
[8] = Candida albicans A 3142, read-out: MIC values
[9] = Candida albicans A 3143, read-out: MIC values
[10] = Candida albicans A 3144, read-out: MIC values
[11] = Candida albicans A 3145, read-out: MIC values
[12] = Candida albicans A 3165, read-out: MIC values
[13] = Candida albicans A 3166, read-out: MIC values
[14] = Candida albicans A 3167, read-out: MIC values
[15] = Candida albicans A 3168, read-out: MIC values
[16] = Candida albicans A 3169, read-out: MIC values
[17] = Candida albicans A 3171, read-out: MIC values
[18] = Candida albicans A 3184, read-out: MIC values
[19] = Candida albicans A 3190, read-out: MIC values
[20] = Candida albicans A 3191, read-out: MIC values
[21] = Candida albicans A 3192, read-out: MIC values
[22] = Candida albicans A 3194, read-out: MIC values
[23] = Candida albicans A 3196, read-out: MIC values
[24] = Trichophyton equinum 441-51, read-out: MIC values
[25] = Trichophyton equinum 856-71, read-out: MIC values
[26] = Trichophyton mentagrophytus 367-68, read-out: MIC values
[27] = Trichophyton mentagrophytus 421-67, read-out: MIC values
[28] = Trichophyton mentagrophytus A 3252, read-out: MIC values
[29] = Trichophyton mentagrophytus R 177, read-out: MIC values
[30] = Trichophyton mentagrophytus R 178, read-out: MIC values
[31] = Trichophyton mentagrophytus RRL 305, read-out: MIC values
[32] = Trichophyton rubrum 218-65, read-out: MIC values
[33] = Trichophyton rubrum 494-62, read-out: MIC values
[34] = Trichophyton rubrum A 810, read-out: MIC values
[35] = Trichophyton verrucosum 134-66, read-out: MIC values

Structure (SMILES)	MIC (Candida albicans; [5])	MIC (Candida albicans; [6])	MIC (Candida albicans; [7])	MIC (Candida albicans; [8])	MIC (Candida albicans; [9])	MIC (Candida albicans; [10])	MIC (Candida albicans; [11])	MIC (Candida albicans; [12])	MIC (Candida albicans; [13])	MIC (Candida albicans; [14])	MIC (Candida albicans; [15])	MIC (Candida albicans; [16])	MIC (Candida albicans; [17])	MIC (Candida albicans; [18])	MIC (Candida albicans; [19])	MIC (Candida albicans; [20])	MIC (Candida albicans; [21])	MIC (Candida albicans; [22])	MIC (Candida albicans; [23])	MIC (Pasteurella multocida)	also measured
[C-]#[N+]C(=Cc1ccc(Cl)cc1)S(=O)(=O)c1ccc(C)cc1 [Example 11, 1-isocyanv-2-(4-chlorophenyl)-1-(4-toluenesulphonyl)-ethene]	0.8 µg/mL (≈ 2.52 µM)	0.4 µg/mL (≈ 1.26 µM)	0.8 µg/mL (≈ 2.52 µM)	1.5 µg/mL (≈ 4.72 µM)	1.5 µg/mL (≈ 4.72 µM)	1.5 µg/mL (≈ 4.72 µM)	1.5 µg/mL (≈ 4.72 µM)	1.5 µg/mL (≈ 4.72 µM)	1.5 µg/mL (≈ 4.72 µM)	1.5 µg/mL (≈ 4.72 µM)	0.8 µg/mL (≈ 2.52 µM)	1.5 µg/mL (≈ 4.72 µM)	1.5 µg/mL (≈ 4.72 µM)	1.5 µg/mL (≈ 4.72 µM)	1.5 µg/mL (≈ 4.72 µM)	1.5 µg/mL (≈ 4.72 µM)	1.5 µg/mL (≈ 4.72 µM)	1.5 µg/mL (≈ 4.72 µM)	3 µg/mL (≈ 9.44 µM)	6 µg/mL (≈ 18.9 µM)	MIC [1]: 3 µg/mL (≈ 9.44 µM); MIC (Trichophyton equinum; Trichophyton equinum 182-76, read-out: MIC values): 3 µg/mL (≈ 9.44 µM); MIC (Trichophyton equinum; [24]): 0.4 µg/mL (≈ 1.26 µM); MIC (Trichophyton equinum; [25]): < 0.05 µg/mL; MIC [2, 26]: 1.5 µg/mL (≈ 4.72 µM); MIC [2, 27]: 6 µg/mL (≈ 18.9 µM); MIC [2, 28]: 1.5 µg/mL (≈ 4.72 µM); MIC [2, 29]: 3 µg/mL (≈ 9.44 µM); MIC [2, 30]: > 100 µg/mL; MIC [2, 31]: 1.5 µg/mL (≈ 4.72 µM); MIC (Trichophyton quickeaneum): 1.5 µg/mL (≈ 4.72 µM); MIC (Trichophyton rubrum; [32]): 1.5 µg/mL (≈ 4.72 µM); MIC (Trichophyton rubrum; [33]): 1.5 µg/mL (≈ 4.72 µM); MIC (Trichophyton rubrum; [34]): 0.8 µg/mL (≈ 2.52 µM); MIC [3]: 0.4 µg/mL (≈ 1.26 µM); MIC [4]: 6 µg/mL (≈ 18.9 µM); MIC (Trichophyton tonsurans): 6 µg/mL (≈ 18.9 µM); MIC (Trichophyton verrucosum; [35]): < 0.05 µg/mL; MIC (Trichophyton verrucosum; Trichophyton verrucosum A 2922, read-out: MIC values): 0.4 µg/mL (≈ 1.26 µM); MIC (Trichophyton violoceum): 0.1 µg/mL (≈ 0.315 µM)
[C-]#[N+]C(=C(C)c1ccc([N+](=O)[O-])cc1)S(=O)(=O)c1ccc(C)cc1 [Example 22, 1-isocyano-2-(4-nitrophenyl)-1-(4-toluenesulphonyl)-1-propene]	1.5 µg/mL (≈ 4.38 µM)	3 µg/mL (≈ 8.76 µM)	3 µg/mL (≈ 8.76 µM)	3 µg/mL (≈ 8.76 µM)	1.5 µg/mL (≈ 4.38 µM)	3 µg/mL (≈ 8.76 µM)	3 µg/mL (≈ 8.76 µM)	3 µg/mL (≈ 8.76 µM)	1.5 µg/mL (≈ 4.38 µM)	1.5 µg/mL (≈ 4.38 µM)	3 µg/mL (≈ 8.76 µM)	3 µg/mL (≈ 8.76 µM)	3 µg/mL (≈ 8.76 µM)	1.5 µg/mL (≈ 4.38 µM)	3 µg/mL (≈ 8.76 µM)	3 µg/mL (≈ 8.76 µM)	3 µg/mL (≈ 8.76 µM)	1.5 µg/mL (≈ 4.38 µM)	3 µg/mL (≈ 8.76 µM)	6 µg/mL (≈ 17.5 µM)	MIC [1]: 0.8 µg/mL (≈ 2.34 µM); MIC (Trichophyton equinum; [24]): 1.5 µg/mL (≈ 4.38 µM); MIC (Trichophyton equinum; [25]): 25 µg/mL (≈ 73 µM); MIC [2, 26]: 3 µg/mL (≈ 8.76 µM); MIC [2, 27]: 12.5 µg/mL (≈ 36.5 µM); MIC [2, 28]: 12.5 µg/mL (≈ 36.5 µM); MIC [2, 29]: 6 µg/mL (≈ 17.5 µM); MIC [2, 30]: 6 µg/mL (≈ 17.5 µM); MIC [2, 31]: 6 µg/mL (≈ 17.5 µM); MIC (Trichophyton rubrum; [32]): 3 µg/mL (≈ 8.76 µM); MIC (Trichophyton rubrum; [33]): 6 µg/mL (≈ 17.5 µM); MIC (Trichophyton rubrum; [34]): 3 µg/mL (≈ 8.76 µM); MIC [3]: 3 µg/mL (≈ 8.76 µM); MIC [4]: 3 µg/mL (≈ 8.76 µM); MIC (Trichophyton tonsurans): 1.5 µg/mL (≈ 4.38 µM); MIC (Trichophyton verrucosum; [35]): 1.5 µg/mL (≈ 4.38 µM); MIC (Trichophyton violoceum): 3 µg/mL (≈ 8.76 µM)
[C-]#[N+]C(=Cc1cccn1C)S(=O)(=O)c1ccc(C)cc1 [Example 30, 2-[1-isocyano-1-(4-toluenesulphonyl)-ethen-2-yl]-1-methylpyrrole]	6 µg/mL (≈ 21 µM)	12.5 µg/mL (≈ 43.7 µM)	12.5 µg/mL (≈ 43.7 µM)	12.5 µg/mL (≈ 43.7 µM)	6 µg/mL (≈ 21 µM)	6 µg/mL (≈ 21 µM)	12.5 µg/mL (≈ 43.7 µM)	6 µg/mL (≈ 21 µM)	6 µg/mL (≈ 21 µM)	3 µg/mL (≈ 10.5 µM)	12.5 µg/mL (≈ 43.7 µM)	6 µg/mL (≈ 21 µM)	12.5 µg/mL (≈ 43.7 µM)	6 µg/mL (≈ 21 µM)	12.5 µg/mL (≈ 43.7 µM)	> 100 µg/mL	6 µg/mL (≈ 21 µM)	12.5 µg/mL (≈ 43.7 µM)	12.5 µg/mL (≈ 43.7 µM)	25 µg/mL (≈ 87.3 µM)	MIC [1]: 25 µg/mL (≈ 87.3 µM); MIC (Trichophyton equinum; [24]): 0.4 µg/mL (≈ 1.4 µM); MIC (Trichophyton equinum; [25]): > 100 µg/mL; MIC [2, 26]: 50 µg/mL (≈ 175 µM); MIC [2, 27]: > 100 µg/mL; MIC [2, 28]: > 100 µg/mL; MIC [2, 29]: 100 µg/mL (≈ 349 µM); MIC [2, 30]: > 100 µg/mL; MIC [2, 31]: > 100 µg/mL; MIC (Trichophyton rubrum; [32]): 50 µg/mL (≈ 175 µM); MIC (Trichophyton rubrum; [33]): > 100 µg/mL; MIC (Trichophyton rubrum; [34]): 50 µg/mL (≈ 175 µM); MIC [3]: 25 µg/mL (≈ 87.3 µM); MIC [4]: 6 µg/mL (≈ 21 µM); MIC (Trichophyton tonsurans): 0.4 µg/mL (≈ 1.4 µM); MIC (Trichophyton verrucosum; [35]): 6 µg/mL (≈ 21 µM); MIC (Trichophyton violoceum): 6 µg/mL (≈ 21 µM)
